Test results taken from US12478643B2, “Compositions and methods for the prevention or treatment of rheumatoid arthritis” (Rhode Island Hospital, priority 2021, dated 2025).

Tests used:
SHIP1 = target: T1, SHIP1 (Homo sapiens, UniProt Q92835); details: read-out: IC50 SHIP-1; cited from earlier work
T1 sequence (Q92835 1-1189): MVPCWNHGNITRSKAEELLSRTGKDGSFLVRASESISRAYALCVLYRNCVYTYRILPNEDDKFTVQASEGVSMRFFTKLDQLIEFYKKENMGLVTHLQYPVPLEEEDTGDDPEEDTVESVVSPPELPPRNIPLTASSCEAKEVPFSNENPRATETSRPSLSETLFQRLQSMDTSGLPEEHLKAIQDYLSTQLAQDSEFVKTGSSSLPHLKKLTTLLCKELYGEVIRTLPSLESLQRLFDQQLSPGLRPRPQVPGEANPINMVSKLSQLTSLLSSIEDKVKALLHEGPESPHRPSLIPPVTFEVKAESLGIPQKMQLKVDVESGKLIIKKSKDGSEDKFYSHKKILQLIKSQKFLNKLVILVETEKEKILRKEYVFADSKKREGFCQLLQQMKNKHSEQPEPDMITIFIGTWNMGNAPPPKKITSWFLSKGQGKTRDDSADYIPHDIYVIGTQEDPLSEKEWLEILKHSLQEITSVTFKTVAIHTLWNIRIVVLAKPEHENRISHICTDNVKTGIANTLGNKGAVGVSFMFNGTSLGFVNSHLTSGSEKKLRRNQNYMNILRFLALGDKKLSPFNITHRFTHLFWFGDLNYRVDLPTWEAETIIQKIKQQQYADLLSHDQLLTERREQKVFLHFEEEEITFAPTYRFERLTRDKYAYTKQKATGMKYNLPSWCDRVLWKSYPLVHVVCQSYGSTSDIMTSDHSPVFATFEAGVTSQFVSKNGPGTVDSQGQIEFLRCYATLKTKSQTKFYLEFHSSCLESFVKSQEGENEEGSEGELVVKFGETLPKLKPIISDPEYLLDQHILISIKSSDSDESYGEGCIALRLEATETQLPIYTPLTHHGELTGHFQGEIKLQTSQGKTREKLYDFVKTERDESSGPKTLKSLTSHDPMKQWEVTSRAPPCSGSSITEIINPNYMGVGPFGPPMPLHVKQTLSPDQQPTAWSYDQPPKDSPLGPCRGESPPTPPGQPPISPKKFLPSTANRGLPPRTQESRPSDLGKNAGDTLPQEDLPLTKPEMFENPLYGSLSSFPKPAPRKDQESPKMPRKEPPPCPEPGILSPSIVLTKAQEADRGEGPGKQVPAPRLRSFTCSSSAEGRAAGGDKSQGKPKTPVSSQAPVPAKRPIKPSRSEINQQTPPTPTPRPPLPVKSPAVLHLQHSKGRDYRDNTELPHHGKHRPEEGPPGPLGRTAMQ

DBA/1 mice = assay: 3AC i.p. daily for 7 days in DBA/1 mice: Western blot and flow cytometry; assay type: in vivo, mouse
Text: Mice. All animals were maintained in pathogen-free conditions and all animal procedures followed protocols approved by the Institutional Animal Care and Use Committee (IACUC) of Rhode Island Hospital. The SHIP-1 knockout (KO) mice (Inpp5d<tm1Dmt>/J, Stock #003534) on a mixed genetic background (129/C57BL/6) were purchased from the Jackson Laboratory, Bar Harbor, ME, and backcrossed with C57BL/6 mice (Stock #000664, the Jackson Laboratory) for 5 generations. Heterozygous (SHIP-1^+/−) mice were intercrossed to obtain homozygous progeny (SHIP-1^−/−). Wild-type (WT) littermates (SHIP-1^+/+) of same age as SHIP1 KO mice were used as controls. DBA/1J mice (Stock #000670) were also purchased from the Jackson Laboratory.
Chemicals and reagents. Specific SHIP-1 inhibitor 3AC was purchased from Echelon Biosciences (Salt Lake, UT) and suspended in 0.3% Klucel (Sigma-Aldrich, St. Louis, MO) solution. The 3AC suspension was stirred by sonication and sterile filtered before injection. The 0.3% Klucel solution was used as a vehicle control.
Immunoblotting. Splenocytes were isolated from C57BL/6 WT and SHIP1 KO mice, and DBA/1 mice with or without 3AC treatment. The cells were then lysed with RIPA buffer containing Halt™ Protease and Phosphatase Inhibitor Cocktail (Thermo Scientific, Rockford, IL). Total lysates (30 μg/sample) were loaded on an SDS-PAGE gel and transferred onto an Immuno-Blot PVDF membrane (Bio-Rad, Hercules, CA). The membranes were first blocked and then probed with antibodies in TBS (20 mM Tris and 150 mM NaCl) containing 0.1% Tween-20 and 5% skim milk. Antibodies against SHIP-1 (P1C1) (sc-8425) and β-Actin (2A3) were purchased from Santa Cruz Biotechnology (Dallas, TX). Blots were developed by using a goat anti-mouse IgG antibody conjugated IRDye 800CW and imaged with an Odyssey imager (LI-COR, Lincoln, NE).
Flow cytometry analysis. Peripheral blood (PB) samples were collected from the retro-orbital sinus of mice on the indicated days. Bone marrow (BM) of femurs and tibiae and spleens were isolated from sacrificed mice. Following treatment with red blood cell lysing buffer (Sigma-Aldrich) and filtration through a nylon mesh, peripheral blood mononuclear cells (PBMCs), splenocytes, and whole BM cells were isolated and suspended in phosphate-buffered saline (PBS) containing 2% FBS. These cells were labeled with fluorophore-conjugated antibodies and subjected to flow cytometry. All antibodies used in flow cytometry were purchased from BioLegend (San Diego, CA): Alexa Fluor 488 anti-mouse CD11b, APC anti-mouse Gr-1, PE anti-mouse CD3e, APC/Cy7 anti-mouse B220, Alexa Flour 488 anti-mouse CD4, and APC anti-mouse CD25. 4′,6-Diamidino-2-Phenylindole (DAPI) was used to exclude DAPI+ dead cells during flow cytometry analysis. Data were acquired using LSR II flow cytometer (BD Biosciences) and analyzed with FlowJo software (FlowJo, Ashland, OR).
Statistical analysis. Data are shown as the mean values±standard error of the mean (SEM). The significance of difference was calculated with unpaired two-tailed Student's t-test or one-way ANOVA when comparing more than 2 groups by using GraphPad Prism (GraphPad Software, Inc., La Jolla, CA). P values less than 0.05 were considered to be statistically significant.

mice = details: as seen in SHIP-1 KO mice; cited from earlier work
[1] = tested on: xenograft model of multiple myeloma; details: cited from earlier work
[2] = tested on: collagen-induced arthritis (CIA) in DBA/1 mice; assay: Collagen-induced arthritis (CIA) prevention model, 3AC pre-treatment; assay type: in vivo, mouse
[3] = tested on: wild-type (WT) C57BL/6 mice; details: cited from earlier work
[4] = tested on: hematopoietic cancer cells; details: in vitro; cited from earlier work
[5] = tested on: CIA in C57BL/6 WT and SHIP1 KO mice; assay: CIA in C57BL/6 WT and SHIP1 KO mice; assay type: in vivo, mouse
SHIP-1 = details: temporal inhibition of SHIP-1; cited from earlier work
[6] = tested on: collagen-induced arthritis (CIA) in DBA/1 mice; assay: Collagen-induced arthritis (CIA) intervention model, 3AC after second immunization; assay type: in vivo, mouse
[7] = i.p. daily for 7 days, DBA/1 mice
[8] = 3AC daily for 7 days prior to CIA induction, vs vehicle
[9] = 3AC daily for 7 days starting on day 27

## CC(C)CCC[C@@H](C)[C@H]1CC[C@H]2[C@@H]3CC[C@H]4C[C@H](N)CC[C@]4(C)[C@H]3CC[C@]12C [Compound 3AC, 3α-Aminocholestane]
SHIP1
  IC50: ~2.5 µM
DBA/1 mice; [7]
  CD3+ T cells in PB: significant reduction
  CD11b+Gr-1+ MDSCs in BM: increase
  CD11b+Gr-1+ MDSCs in peripheral blood (PB): increase
  CD11b+Gr-1+ MDSCs in spleen (SP): increase
  SHIP-1 protein depletion in splenocytes (Western blot): comparable to that in SHIP1 KO mice
DBA/1 mice; vs vehicle control mice
  Tregs in SP: significantly elevated level
DBA/1 mice; vs vehicle treated control mice
  frequency of CD4+CD25+ Tregs in PB: remained unchanged
mice
  pulmonary myeloid infiltration: did not cause
[1]
  inflammation of peripheral tissues: without association with severe inflammation of peripheral tissues
  tumor cell growth: reduces tumor cell growth
[2]; [8]
  CIA onset: significant delay
  severity of CIA (clinical score): significant reduction
[2]; X-ray at day 63
  misalignment, bone erosion and destruction of joint cartilage (radiographic assessment): nearly absent
[2]; after first immunization, 3AC pre-treated DBA/1 mice
  time at which swelling and redness of limbs started to appear: 30 to 40 days
[2]; day 42
  swollen and reddish front paws (photographic assessment): much less so
[2]; following 3AC injection
  Tregs in the spleen: higher number
[2]; till day 21, transient
  CD3+ T cells in peripheral blood: decreased
  MDSCs in peripheral blood: significantly increased
[2]; wrist joint of front paws
  bone erosion (Toluidine Blue): reduced bone erosion
  cartilage damage (Safranin O): reduced cartilage damage
  inflammatory cell infiltration in the arthritic joint (H&E): reduced inflammatory cell infiltration
[3]; WT C57BL/6 mice
  myeloid immunoregulatory cell compartment: significantly expand
[3]; mouse models
  ability of the immune system to prime allogeneic T cell responses: impairs
[4]
  apoptosis of hematopoietic cancer cells: increases apoptosis
[5]; SHIP1 KO mice treated with 3AC (data not shown)
  incidence and severity of CIA in SHIP1 KO mice: did not improve
[5]; WT mice with 3AC pre-treatment
  CIA development in C57BL/6 WT mice: did not develop CIA
SHIP-1
  SHIP-1 protein stability in cells: reduces protein stability and induces protein degradation
[6]; [9]
  CIA incidence: significantly reduced
  CIA severity (clinical score): significantly reduced
[6]; day 34
  number of total T cell in peripheral blood: Significantly and transiently decreasing
[6]; mouse, in vivo
  number of Tregs in peripheral blood: unchanged
[6]; onset and endpoint of the experiment, vs control
  number of Tregs in the spleen: Comparable number
[6]; vs vehicle-treated mice, day 34
  number of MDSCs in peripheral blood: Significantly but transiently increasing
